Measurements from publication PMC6474902, “Examination of novel 4-aminoquinoline derivatives designed and synthesized by a hybrid pharmacophore approach to enhance their anticancer activities” (Scientific Reports, 2019).
“Also recorded” adds a separate entry of the source. Like-named read-outs stand apart in the source and are kept apart here.

Assays:
[1] = test system: MDA-MB468; assay: SRB antiproliferative/antigrowth assay; assay type: cell-based, human; details: Homo sapiens, SRB, 48 h post-treatment, mean of triplicates of at least two experiments, read-out: GI50 MB468
Protocol: (§1) The antigrowth effects of 4-piperazinylquinoline sulfonyl analogs on human breast tumor cells was initially evaluated using MDA-MB468 (a PTEN defective, EGFR positive breast adenocarcioma), MDA-MB231 (p53 and pRB mutated, triple-negative breast carcinoma), and MCF7 (p53+/−, invasive ductal breast carcinoma) cell lines. In addition, the cytotoxicity of all the compounds was also evaluated with the 184B5 and MCF10A non-cancer immortalized breast epithelial cell lines, to determine if these newly synthesized compounds have differential cytotoxic effects on cancer and non-cancer cells. The panel of three breast cancer cell lines with different genetic back ground and the well-studied two non-cancer immortalized breast cell lines would provide insights into the efficacy and toxicity of the test compounds in the different genetic background and at different stages of tumor development. The dose response of each cell line was established by determining the number of viable cells after 48 h of continuous drug treatment against seven different concentrations (100 µM to 0.0064 µM) of each compound. The reading of sulphorodamine B (SRB) staining is known to accurately reflect the level of total cellular macromolecules/cell growth/proliferation[6],[23]. […] The data for CQ and cisplatin were included as references. […] The differences in the GI50 values may be attributable to such factors as the nature of the sulfonyl group and the halogen substitution on the 7th position of the 4-piperazinylquinoline ring system, and the genetic and biochemical background of the cell lines.
(§2) Antiproliferative/antigrowth effects were determined by a SRB-based protocol[6],[23]. For a typical screening experiment, 5,000–10,000 cells were inoculated into 100 µL medium per well of a 96-well microtiter plate as described previously. Briefly, after the inoculation, the microtiter plate was incubated at 37 °C, 5% CO2, 95% air and 100% relative humidity for 24 h, prior to addition of experimental drugs. Some of the sample wells were fixed with 25 µL of 50% tricholoroacetic acid (TCA) as a control of the cell population for each cell line at the time of drug addition (Tz). An aliquot of the frozen stock was thawed and diluted to a desired final maximum test-concentration with complete medium. Two to ten-fold serial dilutions were made to provide a total of seven drug concentrations (and a control [C]). Following addition of drugs, the culture plate was incubated for additional 48 h. Cells were fixed in situ by slowly adding 25 µL of ice-cold 50% (w/v) TCA (final concentration, 10% TCA), and were then incubated for 60 min at 4 °C. The supernatant was discarded, and the plate was washed five times with tap water, followed by air-dry. 50 µL of SRB solution at 0.4% (w/v) in 1% acetic acid was added to each well, and the plate was incubated for >30 min at room temperature. Unbound SRB was removed by five washes with tap water, followed by air-drying. The cells “stained” with SRB were solubilized with 10 mM trizma base, and the absorbance was read on an automated plate reader at a wavelength of 515–564 nm. The relative growth rate (%) was calculated for each of the compound concentrations according to the following formula: (Ti−Tz)/(C−Tz)×100
(§3) In the formula, time zero (Tz), control growth (C), and OD for different concentration of tested compounds (Ti). The GI50 for each compound was obtained from a non-linear Sigmoidal dose-response (variable slope) curve which is fitted by GraphPad Prism v.4.03 software. Values were calculated for each of these parameters if the level of activity was reached. However, if the effect was not reached or was exceeded, the value for that parameter was expressed as greater or less than the maximum or minimum concentration tested.

[2] = test system: MCF7; assay: SRB antiproliferative/antigrowth assay; assay type: cell-based, human; details: for GI50: SRB, 48 h post-treatment, mean of triplicates of at least two experiments, read-out: GI50 MCF7
Protocol: as §1, §2, §3

[3] = test system: MDA-MB231; assay: SRB antiproliferative/antigrowth assay; assay type: cell-based, human; details: for GI50: Homo sapiens, SRB, 48 h post-treatment, mean of triplicates of at least two experiments, read-out: GI50 MB231
Protocol: as §1, §2, §3

[4] = test system: MCF10A; assay: SRB antiproliferative/antigrowth assay, non-cancer cells; assay type: cell-based, human; details: Homo sapiens, MCF-10A, SRB, 48 h post-treatment, non-cancer breast epithelial cells, read-out: GI50 MCF10A
Protocol: as §1, §2, §3

[5] = test system: 184B5; assay: as above; assay type: cell-based, human; details: Homo sapiens, 184B5, 48 h, read-out: GI50 184B5
Protocol: as §1, §2, §3

[6] = test system: MDA-MB231, MDA-MB468, MCF7 breast cancer cells; 184B5 and MCF10A non-cancer breast cells; assay: SRB assay, panel of breast cancer and non-cancer breast cell lines; assay type: cell-based, human; details: judged from GI50 values of Table 1
Protocol: as §1, §2, §3

[7] = test system: HeLa; assay: Combination with bortezomib, cell death; assay type: cell-based, human; details: 48 h post-treatment; BTZ 6 nM, compound 13 0.75 µM, alone or combined
[8] = SRB, 48 h post-treatment, non-cancer breast epithelial cells

Cc1ccc(S(=O)(=O)N2CCN(c3ccnc4cc(Cl)ccc34)CC2)cc1 [Compound 8, 7-Chloro-4-(4-tosylpiperazin-1-yl)quinoline]
GI50 ([1]; MDA-MB-468, 48 h): 28.8 ± 0.7 µM | GI50 ([2]; Homo sapiens, MCF7, 48 h): 16.1 ± 0.6 µM | GI50 ([3]; MDA-MB-231, 48 h): 34.1 ± 0.7 µM | melting point: 190 to 192 °C | GI50 ([4]; 48 h): 44.4 ± 0.7 µM | GI50 [5, 8]: 47.5 ± 0.9 µM | preferential antigrowth effect on cancer versus non-cancer cells (in words) [6]: effective and preferential antigrowth effects on cancer cells; also recorded: stronger antigrowth/antiproliferation activity against cancer cells than non-cancer cells

Cc1ccc(S(=O)(=O)NCCCNc2ccnc3cc(C(F)(F)F)ccc23)cc1 [Compound 35, 4-Methyl-N-[3-(7-trifluoromethyl-quinolin-4-ylamino)-propyl]-benzenesulfonamide]
GI50 ([1]; MDA-MB-468, 48 h): 6.2 ± 0.4 µM | GI50 ([2]; Homo sapiens, MCF7, 48 h): 6.9 ± 0.5 µM | GI50 ([3]; MDA-MB-231, 48 h): 6.4 ± 0.5 µM | melting point: 77 to 79 °C | GI50 ([4]; 48 h): 10.9 ± 0.9 µM | GI50 [5, 8]: 12.2 ± 0.9 µM | preferential antigrowth effect on cancer versus non-cancer cells (in words) [6]: effective and preferential antigrowth effects on cancer cells; also recorded: stronger antigrowth/antiproliferation activity against cancer cells than non-cancer cells

CS(=O)(=O)N1CCN(c2ccnc3cc(C(F)(F)F)ccc23)CC1 [Compound 16, 4-(4-Methanesulfonyl-piperazin-1-yl)-7-trifluoromethyl-quinoline]
GI50 ([1]; MDA-MB-468, 48 h): 28.6 ± 0.7 µM | GI50 ([2]; Homo sapiens, MCF7, 48 h): 25.6 ± 0.3 µM | GI50 ([3]; MDA-MB-231, 48 h): 44.4 ± 0.9 µM | melting point: 116 to 118 °C | GI50 ([4]; 48 h): 75.8 ± 0.8 µM | GI50 [5, 8]: 93.9 ± 0.9 µM | preferential antigrowth effect on cancer versus non-cancer cells (in words) [6]: effective and preferential antigrowth effects on cancer cells; also recorded: stronger antigrowth/antiproliferation activity against cancer cells than non-cancer cells

O=[N+]([O-])c1cccc(S(=O)(=O)N2CCN(c3ccnc4cc(C(F)(F)F)ccc34)CC2)c1 [Compound 21, 4-[4-(3-Nitro-benzenesulfonyl)-piperazin-1-yl]-7-trifluoromethyl-quinoline]
GI50 ([1]; MDA-MB-468, 48 h): 18.6 ± 0.6 µM | GI50 ([2]; Homo sapiens, MCF7, 48 h): 9.4 ± 0.3 µM | GI50 ([3]; MDA-MB-231, 48 h): 32.2 ± 0.6 µM | melting point: 199 to 201 °C | GI50 ([4]; 48 h): 15.4 ± 0.1 µM | GI50 [5, 8]: 17.7 ± 0.2 µM | preferential antigrowth effect on cancer versus non-cancer cells (in words) [6]: effective and preferential antigrowth effects on cancer cells; also recorded: stronger antigrowth/antiproliferation activity against cancer cells than non-cancer cells

O=[N+]([O-])c1ccc(S(=O)(=O)NCCCNc2ccnc3cc(C(F)(F)F)ccc23)c([N+](=O)[O-])c1 [Compound 40, 2,4-Dinitro-N-[3-(7-trifluoromethyl-quinolin-4-ylamino)-propyl]-benzenesulfonamide]
GI50 ([1]; MDA-MB-468): 8.5 ± 0.4 µM | GI50 ([2]; Homo sapiens, MCF7): 5.6 ± 0.3 µM | increase in antigrowth activity against MDA-MB231 compared to mono nitro substituted compounds (30 and 39) [3]: 1.7–2.3 fold | GI50 ([3]; MDA-MB-231): 8.9 ± 0.8 µM | melting point: 198 to 200 °C | GI50 [4]: 22.3 ± 0.8 µM | GI50 [5]: 15.9 ± 0.9 µM | preferential antigrowth effect on cancer versus non-cancer cells (in words) [6]: effective and preferential antigrowth effects on cancer cells; also recorded: stronger antigrowth/antiproliferation activity against cancer cells than non-cancer cells

O=[N+]([O-])c1ccc(S(=O)(=O)N2CCN(c3ccnc4cc(C(F)(F)F)ccc34)CC2)c([N+](=O)[O-])c1 [Compound 22, 4-[4-(2,4-Dinitro-benzenesulfonyl)-piperazin-1-yl]-7-trifluoromethyl-quinoline]
GI50 ([1]; MDA-MB-468): 19.2 ± 0.6 µM | GI50 ([2]; Homo sapiens, MCF7): 10.8 ± 0.1 µM | GI50 ([3]; MDA-MB-231): 24.3 ± 0.6 µM | melting point: 178 to 180 °C | GI50 [4]: 35.4 ± 0.5 µM | GI50 [5]: 37.8 ± 0.4 µM | preferential antigrowth effect on cancer versus non-cancer cells (in words) [6]: effective and preferential antigrowth effects on cancer cells; also recorded: stronger antigrowth/antiproliferation activity against cancer cells than non-cancer cells

CC(C)C[C@H](NC(=O)[C@H](Cc1ccccc1)NC(=O)c1cnccn1)B(O)O [Bortezomib, bortezomib, reference compound]
cell death [7]: neither 6 nM BTZ nor 0.75 µM of compound 13 resulted in substantial HeLa cell death

COC(=O)c1sccc1S(=O)(=O)NCCCNc1ccnc2cc(C(F)(F)F)ccc12 [Compound 42, 3-[3-(7-Trifluoromethyl-quinolin-4-ylamino)-propylsulfamoyl]-thiophene-2-carboxylic acid methyl ester]
GI50 ([1]; MDA-MB-468, 48 h): 4.6 ± 0.2 µM | GI50 ([2]; Homo sapiens, MCF7, 48 h): 4.3 ± 0.2 µM | GI50 ([3]; MDA-MB-231, 48 h): 7.5 ± 0.6 µM | melting point: 137 to 139 °C | GI50 ([4]; 48 h): 14.4 ± 0.8 µM | GI50 [5, 8]: 12.1 ± 0.5 µM | preferential antigrowth effect on cancer versus non-cancer cells (in words) [6]: effective and preferential antigrowth effects on cancer cells; also recorded: stronger antigrowth/antiproliferation activity against cancer cells than non-cancer cells

CN(C)c1cccc2c(S(=O)(=O)NCCCNc3ccnc4cc(Cl)ccc34)cccc12 [Compound 32, 5-Dimethylamino-naphthalene-1-sulfonic acid [3-(7-chloro-quinolin-4-ylamino)-propyl]-amide]
GI50 ([1]; MDA-MB-468, 48 h): 4.6 ± 0.4 µM | GI50 ([2]; Homo sapiens, MCF7, 48 h): 2.45 µM | GI50 [2]: 2.5 ± 0.1 µM | increase in potency against MCF7 compared to CQ ([2]; ratio of GI50 values): 15.7 fold | GI50 ([3]; MDA-MB-231, 48 h): 12.7 ± 1 µM | melting point: 190 to 192 °C | GI50 ([4]; 48 h): 2.6 ± 0.1 µM | GI50 [5, 8]: 1.7 ± 0.1 µM | preferential antigrowth effect on cancer versus non-cancer cells (in words) [6]: loss of preferential antigrowth effects on cancer cells

CN(C)c1cccc2c(S(=O)(=O)N3CCN(c4ccnc5cc(Cl)ccc45)CC3)cccc12 [Compound 14, 5-(4-(7-Chloroquinolin-4-yl)piperazin-1-ylsulfonyl)-N,N-dimethylnaphthalen-1-amine]
GI50 ([1]; MDA-MB-468, 48 h): 27.5 ± 0.7 µM | GI50 ([2]; Homo sapiens, MCF7, 48 h): 22.3 ± 0.2 µM | GI50 ([3]; MDA-MB-231, 48 h): 35 ± 0.8 µM | melting point: 145 to 147 °C | GI50 ([4]; 48 h): 32.2 ± 0.3 µM | GI50 [5, 8]: 28.3 ± 0.3 µM | preferential antigrowth effect on cancer versus non-cancer cells (in words) [6]: effective and preferential antigrowth effects on cancer cells; also recorded: stronger antigrowth/antiproliferation activity against cancer cells than non-cancer cells
